Data published in PMC9381536, “Non-apoptotic cell death induction via sapogenin based supramolecular particles” (Scientific Reports, 2022).
Entries after “also recorded” stand apart in the source; their conditions may differ.

Legend:
[1] = test system: HCC1937; assay: Cytotoxicity analysis (WST-1); assay type: cell-based; conditions: Homo sapiens, HCC1937, 48 h
Description: (§1) HCC1937 (Human breast cancer line), HeLa (Human […]), A549 (Human lung adenocarcinoma), MRC-5 (Human lung fibroblasts), MCF7 (Human breast cancer cells), A549 (human lung carcinoma) were obtained from American Type Culture Collection and maintained as exponentially growing monolayers by culturing according to the supplier’s instructions. MCF7, HeLa, MRC-5, and A549 cell lines were cultured and routinely passaged in DMEM media containing 10% FBS, while HCC1937 cell lines were propagated in RPMI 1640 containing 10% FBS.
(§2) Following the treatment with compounds or vehicle for 48 h, the 10% WST-1 (Roche, Switzerland) in medium was replaced in each 96 well. After 4 h incubation with WST-1 reagent at 37 °C and 5% CO2, the absorbance was measured using a microplate reader at 440 nm (Varioscan, Thermo Fisher Scientific, US). Graph Pad Prism 5 (San Diego, CA, US.) was used to calculate the IC50, which represents the concentration of compounds that is required for 50% inhibition in comparison to the vehicle-treated controls. The experiments were repeated three times independently.

[2] = test system: HeLa; assay: Cytotoxicity analysis (WST-1); assay type: cell-based; conditions: Homo sapiens, 48 h
Description: as §1, §2

[3] = test system: MCF7; assay: Cytotoxicity analysis (WST-1); assay type: cell-based; conditions: Homo sapiens, MCF7, 48 h
Description: as §1, §2

[4] = test system: A549; assay: Cytotoxicity analysis (WST-1); assay type: cell-based; conditions: Homo sapiens, A549, 48 h
Description: as §1, §2

[5] = test system: MRC-5; assay: Cytotoxicity analysis (WST-1); assay type: cell-based; conditions: Homo sapiens, MRC5, MRC-5 normal cell line, 48 h
Description: as §1, §2

[6] = test system: HCC1937; assay: LDH (lactate dehydrogenase) releasing assay; assay type: cell-based, Human; conditions: LDH release and immunoblotting
Description: Figure 5 The cytotoxic activity of analogs depends on particle formation like AG-08. […] The level of released LDH was calculated as fold change relative to vehicle. […] After 24 h, cell viability was measured. […] Cell viability after 24 h was measured. The reported values correspond to mean values ± standard deviation (± s.d) of three experiments. ***p < 0.001, ****p < 0.0001.
LDH-Cytotoxicity Colorimetric Assay Kit II (Biovision) was used to detect LDH releasing. Briefly, HCC1937 were seeded on 96 well plate. After treatment with compounds, cells were centrifuged at 600×g for 10 min. 10 µl supernatant were transferred into clean 96 well plate and added into 100 µl LDH Reaction Mix. Following 30 min incubation at room temperature, 10 µl stop solution were added, and absorbance was measured at 450 nm (Varioscan, Thermo Fisher Scientific, US).

[7] = test system: HCC1937 cells; assay: Cytotoxicity of 220 nm filtrates; assay type: cell-based; conditions: for formation of supramolecular assemblies/particles: inferred from filtration and Tween-20 tests
Description: Figure 1 AG-08 mediated cytotoxicity relies on the supramolecular structures. (A) Structure of AG-08. (B) The scanning transmission electron micrograph of 16 µM AG-08 in PBS. Figure is a representative image of stained sample with uranyl acetate (5683 × magnification; scale bar 600 nm). (C) After 3 h incubation of Nile red solution with AG-08 or AG, fluorescence intensity of Nile red was measured. (D) AG-08, Staurosporine (Sta) or vehicle samples prepared in the cell condition medium was filtrated by 220 nm filter and HCC1937 cells were exposed to the filtrates. After 24 h, the viability of cells was measured and represented as a percentage of that of the vehicle control. The error bars represent mean value ± s.d. (n = 3). *p < 0.05, **p < 0.005, ***p < 0.001. (E) Tween 20 (1:40,000) was added to the fresh medium before addition of 8 μM AG-08 or vehicle. Then cell medium was replaced with this fresh medium. Cell viability was detected after 24 h incubation. […] TEXT PRINTED IN THE PICTURE: (F) no label printed: Diameter: 153.2±4.6; polydispersity index: 0.218
To verify that the activity of AG-08 arises from its supramolecular structures, freshly prepared AG-08 solutions were filtered using 220 nm-filters to remove AG-08 supramolecular particles from medium, and the filtrates were analyzed for their cytotoxicity. […] Next, Tween-20 was utilized as a non-ionic detergent to block particle formation, and AG-08-mediated cell death was inhibited as expected (Fig. 1E). […]

[8] = test system: HeLa, HCC1937, MCF7, A549 and MRC-5; assay: cells; assay type: cell-based, Human; conditions: for IC50: Homo sapiens, range over HeLa, HCC1937, MCF7, A549, MRC-5, read-out: IC50 across the five cell lines
Excerpt: We next aimed to further characterize the relation between the chemical structure of AG-08 and its capacity of supramolecular assembly formation together with its biological activities by preparing further derivatives. In this regard, 18 analogs (Fig. 4) were synthesized from 20(27)-octanor-cycloastragenol (SCG), cycloastragenol (CG), and astragenol (AG) by the methods shown in the method section. The details and characterization of which are shown in Supplementary Information. The cytotoxic activities of the semi-synthetic analogs were evaluated against four human cancer cell lines, namely HeLa, HCC1937, MCF7, and A549 as well as against MRC-5 as a normal cell line.
as §1, §2

[9] = test system: HCC1937 cells; assay: Endocytosis/vesicular trafficking inhibitors against AG-08-mediated cell death; assay type: cell-based, Human; conditions: 1 h pre-treatment, then 8 µM AG-08 24 h, HCC1937, WST-1
Description: Figure 2 AG-08 is related with endosomal pathway. (A) After pre-treatment with 20 µM pitstop II, 0.5 mM methyl-β-cyclodextrin (MβC), 80 µM dynasore, 20 µM cytochalasin d (Cyto D) or 20 µM chlorpromazine (CPZ) for 1 h, HCC1937 cells were treated with 8 µM AG-08 for 24 h. Then cell viability was determined by using WST-1. Reported values were normalized on cells treated with only AG-08. Error bars are the standard deviations (n = 3). p-values were calculated with respect to AG-08 treated cells by two-tailed equal variance Student’s t-test (*p < 0.05, ***p < 0.001, ****p < 0.0001) (B) HCC1937 cells were treated with brefeldin A (Bref A) for 1 h and then treated with 8 µM AG-08 for 24 h. Error bars represent standard deviations (n = 3). p-values were calculated with respect to AG-08-treated cells (*p < 0.05, **p < 0.005, ***p < 0.001). (C) Following AG-08 treatment for 16 h, EEA1 proteins were stained using the anti-EEA1 antibody in HCC1937 cells (scale bar = 25 µm).
Pitstop II (Sigma; SML1169), methyl β cyclodextrin (Cayman; 21,633), chlorpromazine (Cayman; 16,129), dynasore (Cayman, 14,062) and cytochalasin D (Cayman; 11,330) were used as endocytosis inhibitors.

[10] = fibrils inducing apoptosis; cited from earlier work
[11] = Nile red staining (particle formation); assay type: physicochemical; conditions: even at 30 µM
Description: AG-08 and AG were dissolved in DMSO as a 1000-fold concentrated stock added into the filtered PBS, which contain 2.5 µM Nile red. After 3 h incubation at room temperature, the fluorescence intensity was measured with a microplate reader (550 nm for excitation and 635 nm for the emission wavelength) (Varioscan, Thermo Fisher Scientific, US).

Compound | IC50 [1] [µM] | IC50 [2] [µM] | IC50 [3] [µM] | IC50 [4] [µM] | IC50 [5] [µM] | mode of cell death [6] | formation of supramolecular assemblies/particles [7] | cytotoxic activity (structure-activity statement) [8] | protection of cells against AG-08-mediated cell death [9] | also measured
CC(=O)Nc1ccc(S(=O)(=O)OC2CCC34CC35CCC3(C)C(C6(C)CCC(C(C)(C)O)O6)C(O)CC3(C)C5C=CC4C2(C)C)cc1 (stereo not drawn) [CG-06] | 38.1 | > 50 | 41.3 | > 50 | > 50 | induced necrotic cell death | form supramolecular assemblies | complete activity loss |  | 
CN(C)CCCN1c2ccccc2Sc2ccc(Cl)cc21 [chlorpromazine] |  |  |  |  |  |  |  |  | failed to rescue cells | 
CN[C@@H]1C[C@H]2O[C@@](C)([C@@H]1OC)n1c3ccccc3c3c4c(c5c6ccccc6n2c5c31)C(=O)NC4 [staurosporine, reference compound] |  |  |  |  |  |  |  |  |  | cytotoxicity of filtrate after 220 nm filtration ([7]; HCC1937, 24 h): still effectively caused cell death
methyl β-cyclodextrin |  |  |  |  |  |  |  |  | effectively protected cells | 
C[C@H]1CCC/C=C/[C@@H]2C[C@H](O)C[C@H]2[C@H](O)/C=C/C(=O)O1 [Brefeldin A] |  |  |  |  |  |  |  |  | reduced AG-08 dependent cell death | 
Cc1ccc(S(=O)(=O)OC2CCC34CC35CCC3(C)C(C6(C)CCC(C(C)(C)O)O6)C(O)CC3(C)C5C=CC4C2(C)C)cc1 (stereo not drawn) [CG-03] | 6.13 | 12.9 | 5.5 | 3.65 | 5.29 | induced necrotic cell death | form supramolecular assemblies; also recorded: formed supramolecular particles |  |  | IC50 [8]: 3.65 to 12.9 µM
C=C(C)[C@@H]1CC[C@]2(C(=O)O)CC[C@]3(C)[C@H](CC[C@@H]4[C@@]5(C)CC[C@H](O)C(C)(C)[C@@H]5CC[C@]43C)[C@@H]12 [betulinic acid] |  |  |  |  |  |  |  |  |  | concentration at which fibrils form [10]: > 50000 µM
Cc1ccc(S(=O)(=O)OC2CCC34CC35CCC3(C)C(C6(C)CCC(C(C)(C)O)O6)C(O)CC3(C)C5CC(=O)C4C2(C)C)cc1 (stereo not drawn) [CG-05] | 2.66 | 6.1 | 3.85 | 1.85 | 2.58 | induced necrotic cell death | form supramolecular assemblies; also recorded: formed supramolecular particles | higher activity |  | IC50 [8]: 1.85 to 6.1 µM
C=C1[C@@H](C)[C@H]2[C@H](Cc3ccccc3)NC(=O)[C@]23[C@H](OC(C)=O)/C=C/[C@@](C)(O)C(=O)[C@@H](C)C/C=C/[C@H]3[C@@H]1O [cytochalasin D] |  |  |  |  |  |  |  |  | failed to rescue cells | 
Cc1ccc(S(=O)(=O)OC2CCC3(C)C4=CCC5(C)C(C6(C)CCC(C(C)(C)O)O6)C(O)CC5(C)C4CC(=O)C3C2(C)C)cc1 (stereo not drawn) [AG-05] | 4.28 | 5.9 | 2.55 | 2.02 | 1.55 | induced necrotic cell death | form supramolecular assemblies; also recorded: formed supramolecular particles | higher activity |  | IC50 [8]: 1.55 to 5.9 µM
CC(=O)Nc1ccc(S(=O)(=O)OC2CCC3(C)C4=CCC5(C)C(C6(C)CCC(C(C)(C)O)O6)C(O)CC5(C)C4C=CC3C2(C)C)cc1 (stereo not drawn) [AG-06] | 10 | 10.8 | 9.34 | 5.7 | 19.1 | induced necrotic cell death | formed supramolecular particles | decrease in activity |  | IC50 [8]: 5.7 to 19.1 µM
CC(C)(O)C1CCC(C)(C2C(O)CC3(C)C4CC(O)C5C(C)(CCC(O)C5(C)C)C4=CCC23C)O1 (stereo not drawn) [AG, astragenol, reference compound] | > 30 | > 30 | > 30 | > 30 | > 30 |  |  |  |  | Nile red fluorescence intensity (particle formation) [11]: no fluorescence intensity
O=C(N/N=C/c1ccc(O)c(O)c1)c1cc2ccccc2cc1O [dynasore] |  |  |  |  |  |  |  |  | failed to rescue cells | 
CC(C)(O)C1CCC(C)(C2C(O)CC3(C)C4C=CC5C(C)(CCC(OS(C)(=O)=O)C5(C)C)C4=CCC23C)O1 (stereo not drawn) [AG-04] | > 50 | > 50 | 22.1 | 27.5 | 29.6 |  |  | the activity was lost |  | 
CC(C)(O)C1CCC(C)(C2C(O)CC3(C)C4CC(O)C5C(C)(C)C=CCC5(C)C4=CCC23C)O1 (stereo not drawn) [AG-02] | 46.1 | 42.6 | 32.1 | 30.5 | 39.9 |  |  | did not exhibit antiproliferative effect |  | 
O=C1N=C(NS(=O)(=O)c2cccc3ccccc23)SC1=Cc1ccc(Br)cc1 [pitstop II] |  |  |  |  |  |  |  |  | effectively protected cells | 
